The values that follow come from patent US10974081B2, “Treatment and prevention of sleep disorders” (Purdue Pharma L.P., priority 2016, dated 2021).

Converted amounts (≈) assume the structure as drawn. Read-outs that look alike come from different tables or passages of the source.

Series [1] is described as follows: In vivo functional observational battery (FOB). Particulars: male, Crl:CD(SD), rat, in vivo, po.
In series [2] the test system is rats. Description: In vivo functional observational battery (FOB). The following applies: for Increased touch response: 10 mg/kg.
Series [3] has as its system rats. Description: EEG/EMG sleep-wake analysis, single administration compared to zolpidem. It is filed as in vivo, rat.
A further series relates to chronic insomniacs. Particulars: 10 mg zolpidem, PSG in chronic insomniacs; cited from earlier work.
The nature of series [4]: Aqueous solubility at pH about 6.8. The following applies: 25 °C, pH 6.8, aqueous buffer, kinetic from dmso stock. It is filed as physicochemical.
Another series concerns human liver microsomes. Description: In vitro metabolic stability, human liver microsomes. Particulars: 2 μM, % remaining after 30 minutes at 37° C. In kind it is in vitro ADME. On the procedure:
(§1) The comparative in vitro metabolic stabilities of Compounds (1F), […], and W-212393 were determined upon exposure to human liver microsomes or rat liver microsomes according to a procedure disclosed in, e.g., Example 14 of U.S. Pat. No. 9,290,488, which is hereby incorporated by reference in its entirety. Liver microsomes from Crj;CD rats or humans were incubated with 2 μM of each tested compound; thereafter, the supernatant was analyzed by HPLC-MS for the concentration of the tested compound present. Human liver microsomes, pooled, 20 mg/mL, were obtained from […] #H0610). […] Alternatively and if desired, rat liver microsomes can be obtained commercially from, e.g., XenoTech (Sprague-Dawley rat liver microsomes, pooled, 20 mg/mL, cat #R1000). β-NADPH (β-nicotinamide adenine dinucleotide 2'-phosphate reduced tetrasodium salt hydrate) was obtained from Oriental Yeast Co., Ltd. (Tokyo, Japan). Each tested compound, present at an initial concentration of 2 μM, was incubated at 37° C. in the presence of 0.5 mg/mL of either human microsomes or rat microsomes in suspension in 50 mM Tris-HCl buffer (7.4 pH), 150 mM KCl, 10 mM MgCl2, and 1 mM β-NADPH. Incubation was initiated upon the addition of a 100-fold concentrated solution of the tested compound to one of the microsome preparations. Incubation was terminated by addition of a two-fold volume of a 1/1 mixture of acetonitrile/methanol after either 0 minutes or 30 minutes of incubation at 37° C. Thereafter, proteins and other macromolecules from the microsome preparation were removed by centrifugation. All incubations were conducted in duplicate. […] The HPLC system consisted of a Waters 2795 separations module (Waters Corp., Milford, Mass.) equipped with an inline degasser, temperature controlled auto-sampler, and column oven. The analytical column was a Waters […], 2.1 mm×20 mm column. The mass analyzer was a Waters ZQ, single quadrupole mass spectrometer equipped with an electrospray ionization source operating in the positive ionization mode and utilizing a stainless steel spray capillary. […]

A further series concerns rat liver microsomes. Description: In vitro metabolic stability, rat liver microsomes. Particulars: 2 μM, % remaining after 30 minutes at 37° C. It is filed as in vitro ADME. On the procedure:
as §1

Series [5] is described as follows: In vivo bioavailability after oral dosing. The following applies: male, Sprague-Dawley [Crl:CD(SD)], rat, plasma; 1 mg/kg oral, non-fasted; mean of multiple determinations.
Series [6] can be described thus: Rat protein binding, equilibrium dialysis of rat plasma. In kind it is in vitro ADME. The following applies: rat, rat plasma, 2 μg/mL, 24 hours dialysis at 37° C. On the procedure: The extent of in vitro binding of Compound (1F), […], or W-212393 to rat plasma was determined as an assessment of the protein binding of each compound, i.e., compound unavailable for modulating receptor activity. Plasma from rats containing a tested compound in one chamber of a dialysis cell was dialyzed with PBS in the other chamber; thereafter, the supernatant from each chamber was analyzed for the concentration of the tested compound present. A cell suitable for equilibrium dialysis was used in the determinations. The dialysis membrane described in Example 10 (with molecular mass cutoff of 12,000-14,000 Da) separated the dialysis cell into two chambers. The membrane was soaked with purified water and PBS before being placed into the dialysis cell. 4 μL of an iv formulation of each tested compound was added to 996 μL of rat plasma, the latter obtained using syringe containing heparin and EDTA by the procedure described in Example 10, to provide a plasma sample with a tested compound concentration of 2 μg/mL. 450 μL of the plasma sample was applied to one chamber (plasma chamber) of the dialysis cell. A 450 μL aliquot of PBS was applied to the other chamber (PBS chamber) of the dialysis cell. The dialysis study was conducted in duplicate for each tested compound. After 24 hours of equilibrium dialysis at 37° C., 30 μL of liquid from the plasma chamber of the dialysis cell was collected and to this was added 270 μL of fresh PBS (this combination was designated Sample “1”). Then, 270 μL of liquid from the PBS chamber of the dialysis cell was collected and to this was added 30 μL of control rat plasma (i.e., rat plasma never exposed to any test compound, this combination was designated Sample “2”). Thereafter, each sample was mixed well and stored in a freezer until the next analysis step. After the protein precipitated in the freezer, each supernatant thusly obtained was analyzed by LC-MS-MS for unbound test compound. […] Thereafter, the percentage of rat protein-bound (“RPB”) tested compound was calculated as follows: […]

The nature of the next series: in vivo. The following applies: male, Crl, CD(SD), rat, brain homogenate and plasma, intravenous, 0.5 mg/kg.
[7] abbreviates: 30 mg/kg, 1 h after administration.
[8] abbreviates: 30 mg/kg, 2 h after administration.
Setting [9] is: 30 mg/kg, 4 h after administration.
The mark [10] stands for this setting: 30 mg/kg, 6 h after administration.
The mark [11] stands for this setting: 30 mg/kg, 8 h after administration.
[12] abbreviates: 30 mg/kg, 24 h after administration.
The mark [13] stands for this setting: 300 mg/kg, 1 h after administration.
Where [14] appears, read: 300 mg/kg, 2 h after administration.
Where [15] appears, read: 300 mg/kg, 4 h after administration.
The mark [16] stands for this setting: 300 mg/kg, 6 h after administration.
Setting [17] is: 300 mg/kg, 8 h after administration.
Setting [18] is: 300 mg/kg, 24 h after administration.

The molecule `C[C@@H]1C[C@@H]2C[C@H](C1)C[C@@H](N1[C@@H]3CCC[C@H]1C[C@@H](n1c(=O)c(C(=O)O)nc4ccccc41)C3)C2` [Compound 405] yielded a no-observed-adverse-effect level (NOAEL) in series [1] of 10 mg/kg. Further, the Increased touch response in the series with rats [2] (1 h after administration) is 1 of 6; with rats [2] (2 h after administration), “N”; in the series on rats [2] (4 h after administration), “N”; with rats [2] (6 h after administration), “N”; in the series on rats [2] (8 h after administration) it was “N”; in the series with rats [2] (24 h after administration) it was “N”. In addition, the Biting behavior entry is recorded as “N” with rats [2] (setting [7]); “N” with rats [2] (setting [8]); “N” with rats [2] (setting [9]); 3 of 6 in the series on rats [2] (setting [10]); “N” in the series on rats [2] (setting [11]); “N” with rats [2] (setting [12]). Further, the Biting behavior entry in the series on rats [2] (100 mg/kg, 1 h after administration) is “N”; in the series on rats [2] (100 mg/kg, 2 h after administration), “N”; with rats [2] (100 mg/kg, 4 h after administration), “N”; in the series on rats [2] (100 mg/kg, 6 h after administration), 1 of 6; in the series on rats [2] (100 mg/kg, 8 h after administration), 1 of 6; with rats [2] (100 mg/kg, 24 h after administration) it was “N”. Besides, the Biting behavior result in the series on rats [2] (setting [13]) is listed as “N”; in the series with rats [2] (setting [14]), “N”; in the series with rats [2] (setting [15]), “N”; in the series with rats [2] (setting [16]), 2 of 6; in the series on rats [2] (setting [17]), 1 of 6; in the series on rats [2] (setting [18]), “N”. Further, the Jumping entry with rats [2] (setting [7]) is on record as “N”; in the series on rats [2] (setting [8]), “N”; in the series on rats [2] (setting [9]) it was “N”; with rats [2] (setting [10]), 1 of 6; in the series on rats [2] (setting [11]) it was “N”; in the series with rats [2] (setting [12]), “N”. In addition, the Jumping entry in the series on rats [2] (setting [13]) is “N”; with rats [2] (setting [14]) it was “N”; in the series with rats [2] (setting [15]), “N”; in the series with rats [2] (setting [16]), 1 of 6; in the series on rats [2] (setting [17]), 2 of 6; with rats [2] (setting [18]), “N”.
On to `Cc1ccc(-c2nc3ccc(C)cn3c2CC(=O)N(C)C)cc1` [zolpidem, reference compound], for which the overall sleep effect entry with rats [3] (single zolpidem dose of 10 mg/kg oral) is “sleep-enhancing effect”. For the same molecule, the “effect on percentage of time spent in REM sleep” value in the series on rats [3] (zolpidem 10 mg/kg oral (FIG. 17B, 18B)) is listed as “no significant effects”. Besides, the “NREM sleep versus vehicle” value in the series on rats [3] (zolpidem 10 mg/kg oral, 3 hour block 0-3 hours after dosing (FIG. 18C)) was “significant increase”. Moreover, the wakefulness versus vehicle entry in the series on rats [3] (zolpidem 10 mg/kg oral, 3 hour blocks, 0-12 hours after administration (FIG. 18A)) was “decreased tendency”. In addition, the “percentage of time spent in wakefulness” value is recorded as “about 46%” in the series with rats [3] (zolpidem 10 mg/kg oral, at 1 hour after dosing (FIG. 17A)); roughly 43% with rats [3] (zolpidem 10 mg/kg oral, at 10 hours after dosing (FIG. 17A)); “about 69%” in the series with rats [3] (zolpidem 10 mg/kg oral, at 15 hours after dosing, lights-on period (FIG. 17A)). Also, the “percentage of time spent in NREM sleep” value was “about 53%” in the series with rats [3] (zolpidem 10 mg/kg oral, at 1 hour after dosing (FIG. 17C)) and roughly 30% with rats [3] (zolpidem 10 mg/kg oral, at 15 hours after dosing (FIG. 17C)). Besides, in the series on chronic insomniacs, the “Mean percent SE higher than placebo group” value is 7%.
Consider `C[C@@H]1C[C@@H]2C[C@H](C1)C[C@@H](N1[C@@H]3CCC[C@H]1C[C@@H](n1c(=O)c(C(=O)O)nc4ccccc41)C3)C2` [Compound 405K], for which the solubility at 16 h in series [4] (50 mM phosphate buffer, second procedure (50 mM phosphate buffer, HPLC), read-out: Solubility at pH 6.8) is 5 µM (≈ 2.25 µg/mL); in [4] (first procedure (JP2 solution, LC-MS), read-out: Solubility at pH 6.8), 8 µM (≈ 3.6 µg/mL); in series [4] (pH of about 6.8, average of two determinations, read-out: aqueous solubility, average), roughly 6.5 µM (≈ 2.92 µg/mL). Besides, the “Human Metabolic Stability (%)” value in the series with human liver microsomes is given as 95.1%. In the series with rat liver microsomes, the “Rat Metabolic Stability (%)” value was determined as 96.9%. Besides, in [5], the bioavailability was 63.7%. In addition, the unbound share (fraction unbound) at 24 h, 2 μg/mL in series [6] was roughly 0.14. Moreover, in the series “in vivo”, the Kp at 30 min came to 0.
